These results are taken from patent publication US7919487B2, “Heteroaryl compounds” (Synta Pharmaceuticals Corporation, priority 2004, dated 2011).

A value given as a limit tells only on which side of the number the result lay.

As a reminder, the IC50 is the point on the concentration scale where inhibition reaches its midpoint.

In this test the test system is IL-12 production in human PBMC or THP-1 cells. The test can be described thus: Human in vitro assay: inhibition of IL-12 production in human PBMC or THP-1 cells (ELISA). The class given is cell-based. The conditions noted are these: THP-1, human PBMC or THP-1 cells, IFNγ plus LPS or SAC stimulation, representative in vitro data. An excerpt:
The biological activities of the compounds of the invention can be evaluated by a number of cell-based assays. One of such assays can be conducted using cells from human peripheral blood mononuclear cells (PBMC) or human monocytic cell line (THP-1). The cells are stimulated with a combination of human interferon-γ (IFNγ) and lipopolysaccharide or a combination of IFNγ and Staphylococcus aureus Cowan I in the presence of a test compound. The level of inhibition of IL-12 production can be measured by determining the amount of p70 by using a sandwich ELISA assay with anti-human IL-12 antibodies. IC50 of the test compound can then be determined. Specifically, PBMC or THP-1 cells are incubated with the test compound. Cell viability was assessed using the bioreduction of MTS [3-(4,5-dimethylthiazol-2-yl)-5-(3-carboxymethoxyphenyl)-2-(4-sulfophenyl)-2H-tetrazolium] (Promega, Madison, Wis.).
Reagents. Staphylococcus aureus Cowan I (SAC) was obtained from Calbiochem (La Jolla, Calif.), and lipopolysaccharide (LPS, Serratia marscencens) was obtained from Sigma (St Louis, Mo.). Human and mouse recombinant IFNγ were purchased from Boehringer Mannheim (Mannheim, Germany) and Pharmingen (San Diego, Calif.), respectively.
Human In Vitro Assay. Human PBMC were isolated by centrifugation using Ficoll-Paque (Pharmacia Biotech, Uppsala, Sweden) and prepared in RPMI medium supplemented with 10% fetal calf serum (FCS), 100 U/mL penicillin, and 100 μg/mL streptomycin. PBMC were plated in wells of a 96-well plate at a concentration of 5×10^5 cells/well, and primed by adding IFNγ (30 U/mL) for 22 h and stimulated by adding LPS (1 μg/mL), or by adding IFNγ (100 U/mL) and then stimulated by adding SAC (0.01%). A test pyrimidine compound was dissolved in DMSO, and added to wells of the 96-well plate. The final DMSO concentration was adjusted to 0.25% in all cultures, including the compound-free control. Human THP-1 cells were plated in wells, primed by adding IFNγ (100 U/mL) for 22 h and stimulated by adding SAC (0.025%) in the presence of different concentrations of the pyrimidine compound. Cell-free supernatants were taken 18 h later for measurement of cytokines. Cell viability was assessed using the bioreduction of MTS. Cell survival was estimated by determining the ratio of the absorbance in compound-treated groups versus compound-free control.
The supernatant was assayed for the amount of IL-12p40, IL-12p70, or IL-10 by using a sandwich ELISA with anti-human antibodies, i.e., a Human IL-12 p40 ELISA kit from R&D Systems (Berkeley, Calif.), and a Human IL-12 p70 or IL-10 ELISA kit from Endogen (Cambridge, Mass.). Assays were based on the manufacturer's instructions.
The biological activities of compounds were tested on human PBMC or THP-1 cells.
A general note: ELISA stands for enzyme-linked immunosorbent assay.
On to `COc1nc(N/N=C/c2cn(C)c3ccccc23)nc(N(C(C)C)C(C)C)n1` [Compound 1, Diisopropyl-{4-methoxy-6-[N′-(1-methyl-1H-indol-3-ylmethylene)-hydrazino]-[1,3,5]triazin-2-yl}-amine], for which the IC50 came out at 13000 nM.

Regarding `COc1nc(N/N=C/c2c[nH]c3ccccc23)nc(N(C(C)C)C(C)C)n1` [Compound 2, {4-[N′-(1H-Indol-3-ylmethylene)-hydrazino]-6-methoxy-[1,3,5]triazin-2-yl}-diisopropyl-amine], the IC50 came to 13600 nM.

For the compound `COc1nc(N/N=C/c2c[nH]c3c(C)cccc23)nc(N(C(C)C)C(C)C)n1` [Compound 3, Diisopropyl-{4-methoxy-6-[N′-(7-methyl-1H-indol-3-ylmethylene)-hydrazino]-[1,3,5]triazin-2-yl}-amine], the IC50 was 7800 nM.

For `COc1nc(N/N=C/c2c[nH]c3ccc(F)cc23)nc(N(C(C)C)C(C)C)n1` [Compound 4, {4-[N′-(5-Fluoro-1H-indol-3-ylmethylene)-hydrazino]-6-methoxy-[1,3,5]triazin-2-yl}-diisopropyl-amine], the IC50 was 13000 nM.

`COc1nc(N/N=C/c2cn(C(C)=O)c3ccccc23)nc(N(C(C)C)C(C)C)n1` [Compound 5, 1-{3-[(4-Diisopropylamino-6-methoxy-[1,3,5]triazin-2-yl)-hydrazonomethyl]-indol-1-yl}-ethanone]: the IC50 was 12000 nM.

As to `COc1ccc(CCOc2nc(N/N=C/c3c[nH]c4ccccc34)nc(N3CCSC3)n2)cc1OC` [Compound 7, N-{4-[2-(3,4-Dimethoxy-phenyl)-ethoxy]-6-thiazolidin-3-yl-[1,3,5]triazin-2-yl}-N′-(1H-indol-3-ylmethylene)-hydrazine], the IC50 was 20 to 53 nM.

For `C(=N\Nc1nc(OCCc2ccccn2)nc(N2CCC3(CC2)OCCO3)n1)/c1c[nH]c2ccccc12` [Compound 8, N-[4-(1,4-Dioxa-8-aza-spiro[4.5]dec-8-yl)-6-(2-pyridin-2-yl-ethoxy)-[1,3,5]triazin-2-yl]-N′-(1H-indol-3-ylmethylene)-hydrazine], the IC50 is 500 nM.

Regarding `O=C1CCN(c2nc(N/N=C/c3c[nH]c4ccccc34)nc(OCCc3ccccn3)n2)CC1` [Compound 11, 1-[4-[N′-(1H-Indol-3-ylmethylene)-hydrazino]-6-(2-pyridin-2-yl-ethoxy)-[1,3,5]triazin-2-yl]-piperidin-4-one], the IC50 is 500 nM.

Take `COc1ccc(CCOc2nc(N/N=C/c3cccc(C)c3)cc(N(C)C)n2)cc1OC` [Compound 15, {2-[2-(3,4-Dimethoxy-phenyl)-ethoxy]-6-[N′-(3-methyl-benzylidene)-hydrazino]-pyrimidin-4-yl}-dimethyl-amine]: the IC50 is 20 to 56 nM.

Turning to `COc1ccc(CCOc2cc(N(C)C)nc(N/N=C/c3cccc(C)c3)n2)cc1OC` [Compound 16, {6-[2-(3,4-Dimethoxy-phenyl)-ethoxy]-2-[N′-(3-methyl-benzylidene)-hydrazino]-pyrimidin-4-yl}-dimethyl-amine], the IC50 turned out to be 1060 nM.

Take `COc1ccc(CCNc2nccc(N/N=C/c3cccc(C)c3)n2)cc1OC` [Compound 17, [2-(3,4-Dimethoxy-phenyl)-ethyl]-{4-[N′-(3-methyl-benzylidene)-hydrazino]-pyrimidin-2-yl}-amine]: the IC50 turned out to be 636 nM.

Regarding `Cc1cccc(/C=N/Nc2cc(N)nc(N/N=C/c3cccc(C)c3)n2)c1` [Compound 19, 2,6-Bis-[N′-(3-methyl-benzylidene)-hydrazino]-pyrimidin-4-ylamine], the IC50 amounted to 119 nM.

As for `COc1ccc(CCOc2nc(N/N=C/c3cccc(C)c3)nc(-n3ccnc3)n2)cc1OC` [Compound 21, N-{4-[2-(3,4-Dimethoxy-phenyl)-ethoxy]-6-imidazol-1-yl-[1,3,5]triazin-2yl}-N′-(3-methyl-benzylidene)-hydrazine], the IC50 turned out to be 103 nM.

On to `Cc1cccc(/C=N/Nc2nc(CCCO)cc(N(C)C)n2)c1` [Compound 27, 3-{6-Dimethylamino-2-[N′-(3-methyl-benzylidene)-hydrazino]-pyrimidin-4-yl}-propan-1-ol], for which the IC50 came to 9000 nM.

As to `Cc1cccc(/C=N/Nc2nc(CCCOC(=O)Nc3ccc([N+](=O)[O-])cc3)cc(N(C)C)n2)c1` [Compound 28, (4-Nitro-phenyl)-carbamic acid 3-{6-dimethylamino-2-[N′-(3-methyl-benzylidene)-hydrazino]-pyrimidin-4-yl}-propyl ester], the IC50 was found to be 1400 nM.

With `Cc1cccc(/C=N/Nc2nc(CCCOC(=O)Nc3ccc(C(F)(F)F)cc3)cc(N(C)C)n2)c1` [Compound 29, (4-Trifluoromethyl-phenyl)-carbamic acid 3-{6-dimethylamino-2-[N′-(3-methyl-benzylidene)-hydrazino]-pyrimidin-4-yl}-propyl ester], the IC50 turned out to be 10000 nM.

For `CCN(CC)c1cc(N/N=C/c2cccc(C)c2)nc(OCCN2CCOCC2)n1` [Compound 30, Diethyl-[6-[N′-(3-methyl-benzylidene)-hydrazino]-2-(2-morpholin-4-yl-ethoxy)-pyrimidin-4-yl]-amine], the IC50 was determined as 875 nM.

Consider `COCCN(C)c1cc(N/N=C/c2cccc(C)c2)nc(OCCN2CCOCC2)n1` [Compound 31, (2-Methoxy-ethyl)-methyl-[6-[N′-(3-methyl-benzylidene)-hydrazino]-2-(2-morpholin-4-yl-ethoxy)-pyrimidin-4-yl]-amine], for which the IC50 was 674 nM.

In the case of `O=C(Nc1ccc2c(c1)CCC2)Nc1cccc(-c2ccncc2)n1` [Compound 100, 1-[2,4′]Bipyridinyl-6-yl-3-indan-5-yl-urea], the IC50 was found to be 148 nM.

As to `Cc1[nH]c2ccc(NC(=O)c3cc(OCCN4CCOCC4)cc(-c4ccncc4)n3)cc2c1C` [Compound 101, 4-(2-Morpholin-4-yl-ethoxy)-[2,4′]bipyridinyl-6-carboxylic acid (2,3-dimethyl-1H-indol-5-yl)-amide], the IC50 came to 20 nM.

As for `COCCN(C)c1cc(C(=O)Nc2ccc3[nH]c(C)c(C)c3c2)nc(-c2ccncc2)c1` [Compound 102, 4-[(2-Methoxy-ethyl)-methyl-amino]-[2,4′]bipyridinyl-6-carboxylic acid(2,3-dimethyl-1H-indol-5-yl)-amide], the IC50 was determined as 2.6 nM.

Regarding `Cc1[nH]c2ccc(NC(=O)c3cccc(-c4ccncc4F)n3)cc2c1C` [Compound 103, 3′-Fluoro-[2,4′]bipyridinyl-6-carboxylic acid(2,3-dimethyl-1H-indol-5-yl)-amide], the IC50 was 158 nM.

As for `Cc1[nH]c2ccc(NC(=O)c3cccc(-c4cncnc4)n3)cc2c1C` [Compound 104, 6-Pyrimidin-5-yl-pyridine-2-carboxylic acid(2,3-dimethyl-1H-indol-5-yl)-amide], the IC50 is > 1000 nM.

On to `Cc1[nH]c2ccc(NC(=O)c3cccc(-c4ccsc4)n3)cc2c1C` [Compound 105, 6-Thiophen-3-yl-pyridine-2-carboxylic acid(2,3-dimethyl-1H-indol-5-yl)-amide], for which the IC50 is > 1000 nM.

On to `Cc1[nH]c2ccc(NC(=O)c3cccc(-c4cccnc4)n3)cc2c1C` [Compound 106, [2,3′]Bipyridinyl-6-carboxylic acid(2,3-dimethyl-1H-indol-5-yl)-amide], for which the concentration for half-maximal inhibition (IC50) was > 1000 nM.

As for `Cc1[nH]c2ccc(NC(=O)c3cccc(-c4ccnc(F)c4)n3)cc2c1C` [Compound 107, 2′-Fluoro-[2,4′]bipyridinyl-6-carboxylic acid(2,3-dimethyl-1H-indol-5-yl)-amide], the IC50 was 193 nM.

With `Cc1[nH]c2ccc(NC(=O)c3cccc(-c4cn[nH]c4)n3)cc2c1C` [Compound 108, 6-(1H-Pyrazol-4-yl)-pyridine-2-carboxylic acid(2,3-dimethyl-1H-indol-5-yl)-amide], the IC50 is 218 nM.

For `Cc1cccc(/C=N/Nc2cc(OCCN3CCOCC3)nc(-c3ccncc3)n2)c1` [Compound 141, (E)-4-(2-(6-(2-(3-methylbenzylidene)hydrazinyl)-2-(pyridin-4-yl)pyrimidin-4-yloxy)ethyl)morpholine], the IC50 was found to be 94.6 nM.

For `COCc1cc(N/N=C/c2cccc(C)c2)nc(-c2ccncc2)n1` [Compound 142, (E)-4-(methoxymethyl)-6-(2-(3-methylbenzylidene)hydrazinyl)-2-(pyridin-4-yl)pyrimidine], the IC50 turned out to be 80 nM.
